Like-named read-outs stand apart in the source and are kept apart here.
Assay: Single dose pharmacokinetic study in mice (iv 4 mg/Kg, po 20 mg/Kg), plasma concentration post-dosing
Type: in vivo, mouse
Settings: male, C57BL/6, mouse, plasma, mouse; for concentration at 5 min: 5 min post dosing; for concentration at 0.25 h: 0.250 h post dosing; for concentration at 0.5 h: 0.500 h post dosing; for concentration at 1 h: 1.00 h post dosing; for concentration at 2 h: 2.00 h post dosing; for concentration at 4 h: 4.00 h post dosing; for concentration at 8 h: 8.00 h post dosing; for concentration at 24 h: 24.0 h post dosing
Procedure: This is advantageous leading to comparatively lower doses or less frequent administration. The procedure followed was: Male C57BL/6 mice were used at 7-9 weeks age with 3 animals per group. Mice were dosed with test compound using single intravenous bolus or oral gavage. Blood samples were taken via submandibular or saphenous vein for analysis of plasma concentrations of compound by LC-MS/MS at the following timepoints: IV (3 mice): 0.083, 0.25, 0.5, 1, 2, 4, 8 and 24 hours post dosing, PO (3 mice): 0.25, 0.5, 1, 2, 4, 8 and 24 hours post dosing. LC-MS/MS method for the quantitative determination of test compound in corresponding biological matrix was developed. […] The results are shown graphically in FIGS. 1A to 1C (MCC950) and FIGS. 2A to 2C (MCC7840).

## CC(C)(O)c1coc(S(=O)(=O)NC(=O)Nc2c3c(cc4c2CCC4)CCC3)c1 [MCC_000950_016, N-((1,2,3,5,6,7-hexahydro-s-indacen-4-yl)carbamoyl)-4-(2-hydroxypropan-2-yl)furan-2-sulfonamide, reference compound]
iv, 4 mg/kg, IV 4 mg/Kg, individual mice M1-M3, read-out: Plasma concentration, IV Time 0.0833 h
  concentration at 5 min: 20200 ng/mL
iv, 4 mg/kg, IV 4 mg/Kg, mean of 3 mice, read-out: Plasma concentration, IV Time 0.0833 h, Mean IV
  concentration at 5 min: 18400 ng/mL
iv, 4 mg/kg, IV 4 mg/Kg, individual mice M1-M3, read-out: Plasma concentration, IV Time 0.250 h
  concentration at 0.25 h: 16000 ng/mL
iv, 4 mg/kg, IV 4 mg/Kg, mean of 3 mice, read-out: Plasma concentration, IV Time 0.250 h, Mean IV
  concentration at 0.25 h: 13000 ng/mL
iv, 4 mg/kg, IV 4 mg/Kg, individual mice M1-M3, read-out: Plasma concentration, IV Time 0.500 h
  concentration at 0.5 h: 11700 ng/mL
iv, 4 mg/kg, IV 4 mg/Kg, mean of 3 mice, read-out: Plasma concentration, IV Time 0.500 h, Mean IV
  concentration at 0.5 h: 10500 ng/mL
iv, 4 mg/kg, IV 4 mg/Kg, individual mice M1-M3, read-out: Plasma concentration, IV Time 1.00 h
  concentration at 1 h: 9340 ng/mL
iv, 4 mg/kg, IV 4 mg/Kg, mean of 3 mice, read-out: Plasma concentration, IV Time 1.00 h, Mean IV
  concentration at 1 h: 8430 ng/mL
iv, 4 mg/kg, IV 4 mg/Kg, individual mice M1-M3, read-out: Plasma concentration, IV Time 2.00 h
  concentration at 2 h: 7410 ng/mL
iv, 4 mg/kg, IV 4 mg/Kg, mean of 3 mice, read-out: Plasma concentration, IV Time 2.00 h, Mean IV
  concentration at 2 h: 6140 ng/mL
iv, 4 mg/kg, IV 4 mg/Kg, individual mice M1-M3, read-out: Plasma concentration, IV Time 4.00 h
  concentration at 4 h: 3280 ng/mL
iv, 4 mg/kg, IV 4 mg/Kg, mean of 3 mice, read-out: Plasma concentration, IV Time 4.00 h, Mean IV
  concentration at 4 h: 2600 ng/mL
iv, 4 mg/kg, IV 4 mg/Kg, individual mice M1-M3, read-out: Plasma concentration, IV Time 8.00 h
  concentration at 8 h: 905 ng/mL
iv, 4 mg/kg, IV 4 mg/Kg, mean of 3 mice, read-out: Plasma concentration, IV Time 8.00 h, Mean IV
  concentration at 8 h: 743 ng/mL
iv, 4 mg/kg, IV 4 mg/Kg, individual mice M1-M3, read-out: Plasma concentration, IV Time 24.0 h
  concentration at 24 h: 3.29 ng/mL
iv, 4 mg/kg, IV 4 mg/Kg, mean of 3 mice, read-out: Plasma concentration, IV Time 24.0 h, Mean IV
  concentration at 24 h: 2.65 ng/mL
iv, 4 mg/kg, IV 4 mg/Kg, individual mice M1-M3, read-out: AUC0-inf
  AUC0-inf: 41900 ng·h/mL
iv, 4 mg/kg, IV 4 mg/Kg, individual mice M1-M3, read-out: AUC0-last
  AUC(0-t): 41900 ng·h/mL
iv, 4 mg/kg, IV 4 mg/Kg, individual mice M1-M3, read-out: C0
  C0: 22700 ng/mL
iv, 4 mg/kg, IV 4 mg/Kg, individual mice M1-M3, read-out: Cl
  clearance: 1.59 mL/min/kg
iv, 4 mg/kg, IV 4 mg/Kg, individual mice M1-M3, read-out: MRT0-inf
  MRT inf: 2.78 h
iv, 4 mg/kg, IV 4 mg/Kg, individual mice M1-M3, read-out: MRT0-last
  MRT last: 2.77 h
iv, 4 mg/kg, IV 4 mg/Kg, individual mice M1-M3, read-out: T1/2 (converted)
  half-life: 2 h
iv, 4 mg/kg, IV 4 mg/Kg, individual mice M1-M3, read-out: Vdss
  Vd: 0.265 L/kg
iv, 4 mg/kg, IV 4 mg/Kg, mean of 3 mice, read-out: AUC0-inf, Mean IV
  AUC0-inf: 35400 ng·h/mL
iv, 4 mg/kg, IV 4 mg/Kg, mean of 3 mice, read-out: AUC0-last, Mean IV
  AUC(0-t): 35400 ng·h/mL
iv, 4 mg/kg, IV 4 mg/Kg, mean of 3 mice, read-out: Cl, Mean IV
  clearance: 1.92 mL/min/kg
iv, 4 mg/kg, IV 4 mg/Kg, mean of 3 mice, read-out: MRT0-inf, Mean IV
  MRT inf: 2.67 h
iv, 4 mg/kg, IV 4 mg/Kg, mean of 3 mice, read-out: MRT0-last, Mean IV
  MRT last: 2.67 h
iv, 4 mg/kg, IV 4 mg/Kg, mean of 3 mice, read-out: T1/2, Mean IV (converted)
  half-life: 2 h
iv, 4 mg/kg, IV 4 mg/Kg, mean of 3 mice, read-out: Vdss, Mean IV
  Vd: 0.306 L/kg
po, 20 mg/kg, PO 20 mg/Kg, mean of 3 mice, read-out: Plasma concentration, PO Time 0.250 h, Mean PO
  concentration at 0.25 h: 33300 ng/mL
po, 20 mg/kg, PO 20 mg/Kg, individual mice M4-M6, read-out: Plasma concentration, PO Time 0.500 h
  concentration at 0.5 h: 20400 ng/mL
po, 20 mg/kg, PO 20 mg/Kg, mean of 3 mice, read-out: Plasma concentration, PO Time 0.500 h, Mean PO
  concentration at 0.5 h: 30100 ng/mL
po, 20 mg/kg, PO 20 mg/Kg, individual mice M4-M6, read-out: Plasma concentration, PO Time 1.00 h
  concentration at 1 h: 19300 ng/mL
po, 20 mg/kg, PO 20 mg/Kg, mean of 3 mice, read-out: Plasma concentration, PO Time 1.00 h, Mean PO
  concentration at 1 h: 30000 ng/mL
po, 20 mg/kg, PO 20 mg/Kg, individual mice M4-M6, read-out: Plasma concentration, PO Time 2.00 h
  concentration at 2 h: 18500 ng/mL
po, 20 mg/kg, PO 20 mg/Kg, mean of 3 mice, read-out: Plasma concentration, PO Time 2.00 h, Mean PO
  concentration at 2 h: 22400 ng/mL
po, 20 mg/kg, PO 20 mg/Kg, individual mice M4-M6, read-out: Plasma concentration, PO Time 4.00 h
  concentration at 4 h: 10200 ng/mL
po, 20 mg/kg, PO 20 mg/Kg, mean of 3 mice, read-out: Plasma concentration, PO Time 4.00 h, Mean PO
  concentration at 4 h: 11200 ng/mL
po, 20 mg/kg, PO 20 mg/Kg, individual mice M4-M6, read-out: Plasma concentration, PO Time 8.00 h
  concentration at 8 h: 4330 ng/mL
po, 20 mg/kg, PO 20 mg/Kg, mean of 3 mice, read-out: Plasma concentration, PO Time 8.00 h, Mean PO
  concentration at 8 h: 3790 ng/mL
po, 20 mg/kg, PO 20 mg/Kg, mean of 3 mice, read-out: Plasma concentration, PO Time 24.0 h, Mean PO
  concentration at 24 h: 39.1 ng/mL
po, 20 mg/kg, PO 20 mg/Kg, individual mice M4-M6, read-out: AUC0-inf
  AUC0-inf: 108000 ng·h/mL
po, 20 mg/kg, PO 20 mg/Kg, individual mice M4-M6, read-out: AUC0-last
  AUC(0-t): 108000 ng·h/mL
po, 20 mg/kg, PO 20 mg/Kg, individual mice M4-M6, read-out: MRT0-inf
  MRT inf: 4.31 h
po, 20 mg/kg, PO 20 mg/Kg, individual mice M4-M6, read-out: MRT0-last
  MRT last: 4.26 h
po, 20 mg/kg, PO 20 mg/Kg, individual mice M4-M6, read-out: T1/2 (converted)
  half-life: 2.67 h
po, 20 mg/kg, PO 20 mg/Kg, individual mice M4-M6, read-out: Tmax
  Tmax: 0.25 h
